Test results published in patent US12246002B2, “Pharmaceutical composition for prevention or treatment of circadian rhythm-related disorders, comprising oxyiminomethylbenzene derivative as active ingredient” (KOREA UNIVERSITY RESEARCH AND BUSINESS FOUNDATION, priority 2018, dated 2025).

What was measured:
CLOCK:BMAL1 dimer = test: E-box-LUC reporter assay of transcriptional activity of CLOCK:BMAL1 dimer in NIH-3T3 fibroblast line; format: cell-based; settings: NIH-3T3 E-box-LUC cells; for Max (%) maximum activity of E-box-LUC reporter compared to the control group: four parameter logistic fit, DMSO control
Description: The NIH-3T3 fibroblast line (Non-patent document 6) expressing the E-box-LUC reporter was used to evaluate the effect of the oxyiminomethylbenzene derivative on the transcriptional activity of the CLOCK:BMAL1 dimer mediated by E-box. Reporter-expressing fibroblast line was maintained and cultured in an incubator in a humidified state at 5% carbon dioxide and 37 degrees Celsius, using Dulbecco's modified eagles medium (Invitrogen) having 10% fetal bovine serum, 1% penicillin/streptomycin (Invitrogen) and 1% L-glutamine added thereto.
(§1) The reporter-expressing cell line was dispensed and cultured in a 48-well culture plate 24 hours before compound treatment. The cultured cells were finally treated with a compound to a concentration of 0.1, 0.3, 1.0, 3.0, 10, 30 or 100 μM. As a control group (0 μM), cells treated with the same amount of dimethyl sulfoxide (DMSO) were used. After 36 hours elapsed after treatment of the compound, the cells were washed twice with 1× D-PBS, and was lysed for 15 minutes using 100 μl of a cell lysis buffer (Promega) per well. After reacting a 20 μl sample of the lysate with the same amount of a luciferase assay reagent (Promega), the luciferase activity was measured using a luminometer (TD-20/20 Luminometer, Turner systems). The measured luciferase activity was corrected based on the protein content of the lysate. The protein content was measured using a Bradford staining reagent from Bio-rad.
(§2) The concentration-response correlation for each derivative was converted to a standard curve using Four Parameter Logistic Equation. The calculation process utilized the statistical analysis function provided by SigmaPlot 10.0 ([…], Systat Software Inc.). Based on the concentration-response curve, the maximum activity (Max) and EC50 values of each derivative were calculated and input in [Table 1]. When the compound induces cell death, cytotoxicity (Tox.) was input to the EC50 field. The concentration-reaction correlation curves of compounds of Chemical Formula 8-9, 9-9, 8-10 and 9-10 as a representative example are shown in FIG. 1.

NIH-3T3 fibroblast line = test: Cytotoxicity (cell death) seen in the E-box-LUC reporter assay; format: cell-based; settings: for cytotoxicity (Tox.) input to the EC50 field when the compound induces cell death: NIH-3T3 E-box-LUC cells, 0.1-100 μM, 36 hours
Description: as §1, §2

PER2-LUC fusion protein = test: Circadian rhythm expression of PER2-LUC fusion protein in PER2-LUC knock-in fibroblasts (real-time bioluminescence, Cosinor analysis); format: cell-based, mouse; settings: 20 μM, PER2-LUC KI fibroblasts, FIG. 3; for amplitude of the circadian rhythm expression of the PER2-LUC fusion protein: DEX synchronized, up to 5 days
Description: The effects of the compounds (8-9 and 8-10) prepared in Example 1 on the circadian rhythm expression of the molecular biological clock whose the cells are expressed through inhibition of CRY and enhancement of transcriptional activity of CLOCK:BMAL1 were evaluated. To this end, a mutant fibroblast line (PER2-LUC knock-in fibroblast) was used in which a PER2-LUC fusion protein is expressed via linking the luciferase gene from the position where the stop codon of the PER2 gene is located. The cell line was established from lung tissue of PER2-LUC knock-in mutant mice (Non-patent document 31) 1 week after birth. PER2-LUC knock-in (KI) fibroblasts was maintained and cultured in the incubator under a humidified state at 5% carbon dioxide and 37 degrees Celsius using Dulbecco's modified Eagle medium supplemented with 10% serum, 1% penicillin/streptomycin, and 1% L-glutamine.
After treating the cultured cells with 200 nM dexamethasone (DEX) for 2 hours for synchronization, the DEX was replaced with a medium including the substrate of luciferase that is, luciferin (final concentration 0.1 mM) with 20 μM of the compound of Chemical Formula 8-9 or 8-10. As a control group, cells (VEH) treated with the same amount of dimethyl sulfoxide instead of the compound were used. As another comparative group, the cells treated with a 2-ethoxypropionic acid-based CRY inhibitor (Non-patent document 6), that is, KS15 (final concentration 20 μM) was used. The control and the KS15-treated cells were also replaced with a medium including luciferin of the same concentration.
Bioluminescence signals generated from cells cultured in a medium including the compound and luciferin were continuously measured for up to 5 days at 10-minute intervals using a real-time bioluminescence measurement equipment (Kronos-DIO, ATTO). The results were identified through statistical detrending. The circadian rhythm expression pattern of the PER2-LUC fusion protein was analyzed using the Cosinor analysis program (free distribution on http://www.circadian.org) to determine the amplitude, period, and robustness of the periodicity. Based on the results obtained through 4 replicate experiments, the statistical significance of the change according to compound treatment was verified.

Compound | Max (%) maximum activity of E-box-LUC reporter compared to the control group (CLOCK:BMAL1 dimer; 0.1-100 μM, 36 hours) | further results
COC(=O)COc1cccc(C(C)=NOCc2cccc(C(F)(F)F)c2)c1 [Compound 8-1, methyl 2-{3-[N-{[3-(trifluoromethyl)phenyl]methoxy}ethanimidoyl]phenoxy}acetate] |  | EC50 (CLOCK:BMAL1 dimer; 0.1-100 μM, 36 hours): 27.4 µM
COC(=O)COc1cccc(C(C)=NOCc2ccc(Br)cc2)c1 [Compound 8-5, methyl 2-(3-{N-[(4-bromophenyl)methoxy]ethanimidoyl}phenoxy)acetate] |  | cytotoxicity (Tox.) input to the EC50 field when the compound induces cell death (NIH-3T3 fibroblast line): (Tox.)
CC(=NOCc1ccc(Br)cc1)c1cccc(OCC(=O)O)c1 [Compound 8-6, (3-{N-[(4-bromophenyl)methoxy]ethanimidoyl}phenoxy)acetic acid] | 123.78% | cytotoxicity (Tox.) input to the EC50 field when the compound induces cell death (NIH-3T3 fibroblast line): (Tox.)
CC(=NOCc1ccc(Br)cc1)c1cccc(OCC(=O)NCc2ccccn2)c1 [Compound 8-7, 2-{3-[N-(4-bromophenyl)methoxyethanimidoyl]phenoxy}-N-[(pyridin-2-yl)methyl]acetamide] | 129.69% | 
CC(=NOCc1ccc(Br)cc1)c1cccc(OCC(=O)NCCc2ncc[nH]2)c1 [Compound 8-8, 2-{3-[N-(4-bromophenyl)methoxyethanimidoyl]phenoxy}-N-[2-(1H-imidazol-2-yl)ethyl]acetamide] | 121.10% | cytotoxicity (Tox.) input to the EC50 field when the compound induces cell death (NIH-3T3 fibroblast line): (Tox.)
COC(=O)COc1cccc(C(C)=NOCc2ccc([N+](=O)[O-])cc2)c1 [Compound 8-9, methyl 2-(3-{N-[(4-nitrophenyl)methoxy]ethanimidoyl}phenoxy)acetate] |  | cytotoxicity (NIH-3T3 fibroblast line; at up to 100 μM): No significant cytotoxicity; activity of E-box-LUC (concentration-response, FIG. 1) (CLOCK:BMAL1 dimer): increase the activity of E-box-LUC in a concentration-dependent manner; amplitude of the circadian rhythm expression of the PER2-LUC fusion protein (PER2-LUC fusion protein): increases the amplitude of the circadian rhythm expression of the PER2-LUC fusion protein at a significant level; period of the circadian rhythm expression of the PER2-LUC fusion protein (PER2-LUC fusion protein): not affecting the period; robustness of the circadian rhythm expression of the PER2-LUC fusion protein (PER2-LUC fusion protein): not affecting the period or robustness
CC(=NOCc1ccc([N+](=O)[O-])cc1)c1cccc(OCC(=O)O)c1 [Compound 8-10, (3-{N-[(4-nitrophenyl)methoxy]ethanimidoyl}phenoxy)acetic acid] |  | activity of E-box-LUC (concentration-response, FIG. 1) (CLOCK:BMAL1 dimer): increase the activity of E-box-LUC in a concentration-dependent manner; amplitude of the circadian rhythm expression of the PER2-LUC fusion protein (PER2-LUC fusion protein): increases the amplitude of the circadian rhythm expression of the PER2-LUC fusion protein at a significant level; period of the circadian rhythm expression of the PER2-LUC fusion protein (PER2-LUC fusion protein): not affecting the period; robustness of the circadian rhythm expression of the PER2-LUC fusion protein (PER2-LUC fusion protein): not affecting the period or robustness
CC(=NOCc1ccc(S(C)(=O)=O)cc1)c1cccc(OCC(=O)O)c1 [Compound 8-12, {3-[N-{[4-(methanesulfonyl)phenyl]methoxy}ethanimidoyl]phenoxy}acetic acid] | 98.71% | 
COC(=O)COc1cccc(C(C)=NOCc2ccc(F)cc2)c1 [Compound 8-13] | 119.93% | cytotoxicity (Tox.) input to the EC50 field when the compound induces cell death (NIH-3T3 fibroblast line): (Tox.)
COC(=O)COc1ccc(C(C)=NOCc2cccc(C(F)(F)F)c2)cc1 [Compound 9-1, methyl 2-{4-[N-{[3-(trifluoromethyl)phenyl]methoxy}ethanimidoyl]phenoxy}acetate] | 107.89% | 
CC(=NOCc1cccc(C(F)(F)F)c1)c1ccc(OCC(=O)O)cc1 [Compound 9-2, {4-[N-{[3-(trifluoromethyl)phenyl]methoxy}ethanimidoyl]phenoxy}acetic acid] | 115.15% | 
COC(=O)COc1ccc(C(C)=NOCc2ccc(OC)cc2)cc1 [Compound 9-3, methyl 2-(4-{N-[(4-methoxyphenyl)methoxy]ethanimidoyl}phenoxy)acetate] | 103.87% | 
COc1ccc(CON=C(C)c2ccc(OCC(=O)O)cc2)cc1 [Compound 9-4, (4-{N-[(4-methoxyphenyl)methoxy]ethanimidoyl}phenoxy)acetic acid] | 102.65% | 
COC(=O)COc1ccc(C(C)=NOCc2ccc(Br)cc2)cc1 [Compound 9-5, methyl 2-(4-{N-[(4-bromophenyl)methoxy]ethanimidoyl}phenoxy)acetate] | 111.88% | 
CC(=NOCc1ccc(Br)cc1)c1ccc(OCC(=O)O)cc1 [Compound 9-6, (4-{N-[(4-bromophenyl)methoxy]ethanimidoyl}phenoxy)acetic acid] | 106.70% | 
CC(=NOCc1ccc(Br)cc1)c1ccc(OCC(=O)NCc2ccccn2)cc1 [Compound 9-7, 2-{4-[N-(4-bromophenyl)methoxyethanimidoyl]phenoxy}-N-[(pyridin-2-yl)methyl]acetamide] | 135.47% | 
CC(=NOCc1ccc(Br)cc1)c1ccc(OCC(=O)NCCc2ncc[nH]2)cc1 [Compound 9-8, 2-{4-[N-(4-bromophenyl)methoxyethanimidoyl]phenoxy}-N-[2-(1H-imidazol-2-yl)ethyl]acetamide] | 120.89% | 
COC(=O)COc1ccc(C(C)=NOCc2ccc([N+](=O)[O-])cc2)cc1 [Compound 9-9, methyl 2-(4-{N-[(4-nitrophenyl)methoxy]ethanimidoyl}phenoxy)acetate] | 113.52% | 
CC(=NOCc1ccc([N+](=O)[O-])cc1)c1ccc(OCC(=O)O)cc1 [Compound 9-10, (4-{N-[(4-nitrophenyl)methoxy]ethanimidoyl}phenoxy)acetic acid] | 108.43% | 
COC(=O)COc1ccc(C(C)=NOCc2ccc(S(C)(=O)=O)cc2)cc1 [Compound 9-11, methyl 2-{4-[N-{[4-(methanesulfonyl)phenyl]methoxy}ethanimidoyl]phenoxy}acetate] | 100.39% | 
CC(=NOCc1ccc(S(C)(=O)=O)cc1)c1ccc(OCC(=O)O)cc1 [Compound 9-12, {4-[N-{[4-(methanesulfonyl)phenyl]methoxy}ethanimidoyl]phenoxy}acetic acid] | 111.38% | 
